Measurements reported in PMC6804044, “Design, Synthesis and Biological Evaluation of Pentacyclic Triterpene Derivatives: Optimization of Anti-ABL Kinase Activity” (Molecules, 2019).
Like-named read-outs stand apart in the source and are kept apart here.

How the values were obtained:
[1] = test system: CML cell line K562; test: MTT cell viability assay, K562; assay type: cell-based, human; details: for IC50: Homo sapiens, K562, 24 h, MTT, 24 h exposure, read-out: IC50 Values, K562 Cell Line; for SI (selectivity index): ratio of the IC50 between PBMC and K562 cells
Procedure: A549 human lung carcinoma and HeLa human cervical carcinoma cell lines were cultured in Dulbecco’s Modified Eagle Medium (DMEM). […] In experiments, all cancer cell lines and PBMC were cultured in 24-well and 96-well plates (Iwaki brand Asahi Glass, Chiba, Japan) at 2 × 10^4 cells/mL and 1 × 10^6 cells/mL concentrations, respectively for 24 h.
(§1) The cells were then stained with MTT solution and incubated for additional 4 h. At the end of this period, supernatants were removed and 100 μL DMSO was added to each well to solubilize the formazan crystals. The absorbance of the solution was determined on the Infinitive M1000 (Tecan, Mannedorf, Switzerland) plate reader at a wavelength of 550 nm with background subtraction at 630 nm.

[2] = test system: peripheral blood mononuclear cells (PBMC); test: MTT cell viability assay, PBMC; assay type: cell-based; details: PBMC, 24 h exposure
Procedure: (§2) A549 human lung carcinoma and HeLa human cervical carcinoma cell lines were cultured in Dulbecco’s Modified Eagle Medium (DMEM). MCF7 human breast cancer and leukemic (K562, HL-60, MT-2 and Jurkat) cells, and PBMC (Precision Bioservices, Frederic, MD, USA) were cultured in RPMI 1640. All media were purchased from FUJIFILM Wako (Osaka, Japan) and supplemented with 10% fetal bovine serum (FBS) (Sigma-Aldrich, St. Louis, MO, USA) and 89 μg/mL streptomycin (Meiji Seika Pharma, Tokyo, Japan) at 37 °C in a humid atmosphere and 5% CO2. In experiments, all cancer cell lines and PBMC were cultured in 24-well and 96-well plates (Iwaki brand Asahi Glass, Chiba, Japan) at 2 × 10^4 cells/mL and 1 × 10^6 cells/mL concentrations, respectively for 24 h.
as §1, with “The cells were exposed to various concentrations (1–100 μM) of the compounds for 24 h at 37 °C. The cells” for “The cells”

[3] = target: T1, ABL1 kinase (Homo sapiens, UniProt P00519); details: a value in the previous paper; cited from earlier work
T1 construct: purchased Promega, Madison, WI, USA

[4] = target: T1, ABL1 kinase; test: ABL1 kinase inhibition (ADP-Glo Kinase Assay); assay type: biochemical; details: ADP-Glo, 1 h incubation, room temperature
Procedure: The ABL1 kinase profiling assay protocol was applied according to the manufacturer`s instructions (Promega, Madison, WI, USA) with the modification proposed in [36]. In this system, the ABL1 kinase and its substrate were diluted with 95 µL 2.5x Kinase Buffer and 15 µL of 100 µM ATP solutions, respectively. Then, the reaction of ABL1 kinase was performed using 2 µL of the compound solution at varying concentrations (0.1–30 µM), 4 µL of kinase working stock, and 4 µL of ATP/substrate working stock in the 384-well plate. After 1 h of incubation at room temperature, the activity of the ABL1 kinase was detected using the ADP-Glo Kinase Assay (Promega, Madison, WI, USA) and the inhibitory kinase activity of compounds in dose-response mode was measured by the Infinitive M1000 luminescence plate reader (Tecan, Groding, Austria).

[5] = test system: MCF7 human breast cancer; test: MTT cell viability assay, MCF7; assay type: cell-based; details: 24 h exposure
Procedure: as §2
as §1, with “The cells were exposed to various concentrations (1–100 μM) of the compounds for 24 h at 37 °C. The cells” for “The cells”

[6] = test system: K562 cells; test: Cell death detection (Hoechst 33342/annexin V/ethidium homodimer III staining); assay type: cell-based, human; details: K562, IC50 concentration, 8 h
Procedure: The cells were then briefly washed twice with 1 × binding buffer. A staining solution containing 50 μL of 1 × binding buffer and 5 μL of FITC-Annexin V solution, 5 μL of ethidium homodimer III solution, or 5 μL of Hoechst 33342 solution was added, and incubated for 15 min at room temperature in the dark. Then, the cells were washed with 1 × binding buffer, and analyzed by the all-in-one fluorescence microscope Biorevo Fluorescence BZ-9000 (Keyence, Osaka, Japan). The number of healthy cells (Hoechst 33342), apoptotic cells (Annexin V), late apoptotic or necrotic cells (Annexin V and Ethidium homodimer III) and necrotic cells (Ethidium homodimer III) were counted as previously described.

[7] = test system: HL-60; test: MTT cell viability assay, HL-60; assay type: cell-based; details: Homo sapiens, 24 h exposure
Procedure: as §2
as §1, with “The cells were exposed to various concentrations (1–100 μM) of the compounds for 24 h at 37 °C. The cells” for “The cells”

[8] = test system: MT-2; test: MTT cell viability assay, MT-2; assay type: cell-based; details: Homo sapiens, MT2, 24 h exposure
Procedure: as §2
as §1, with “The cells were exposed to various concentrations (1–100 μM) of the compounds for 24 h at 37 °C. The cells” for “The cells”

[9] = test system: HeLa human cervical carcinoma; test: MTT cell viability assay, HeLa; assay type: cell-based; details: 24 h exposure
Procedure: as §2
as §1, with “The cells were exposed to various concentrations (1–100 μM) of the compounds for 24 h at 37 °C. The cells” for “The cells”

[10] = test system: A549 human lung carcinoma; test: MTT cell viability assay, A549; assay type: cell-based
Procedure: as §2
as §1, with “The cells were exposed to various concentrations (1–100 μM) of the compounds for 24 h at 37 °C. The cells” for “The cells”

[11] = test system: ERK1/2 and phosphorylated ERK1/2 in K562 cells; test: Immunoblot analysis of ERK signaling in K562; assay type: cell-based, human; details: K562, 10 μM, 6 h
Procedure: After 6 h of treatment at 37 °C, the cells were lysed in PBS-Laemmli sample buffer and then, immunoblot analysis was conducted using phospho-specific-p44/42 MAPK (Erk1/2) (Thr202/Tyr204) (D13.14.4E) XP Rabbit mAb (1:1000) (Cell Signaling Technology, Danvers, MA, USA) or anti-β-actin clone AC-15 (Sigma-Aldrich, St. Louis, MO, USA). For immunoreactivity detection, the chemiluminescence method was performed as previously described. The band intensity was measured using the ImageJ software (NIH, Bethesda, MD, USA).

[12] = test system: Jurkat; test: MTT cell viability assay, Jurkat; assay type: cell-based; details: Homo sapiens, 24 h exposure
Procedure: as §2
as §1, with “The cells were exposed to various concentrations (1–100 μM) of the compounds for 24 h at 37 °C. The cells” for “The cells”

T1 sequence (P00519 whole entry): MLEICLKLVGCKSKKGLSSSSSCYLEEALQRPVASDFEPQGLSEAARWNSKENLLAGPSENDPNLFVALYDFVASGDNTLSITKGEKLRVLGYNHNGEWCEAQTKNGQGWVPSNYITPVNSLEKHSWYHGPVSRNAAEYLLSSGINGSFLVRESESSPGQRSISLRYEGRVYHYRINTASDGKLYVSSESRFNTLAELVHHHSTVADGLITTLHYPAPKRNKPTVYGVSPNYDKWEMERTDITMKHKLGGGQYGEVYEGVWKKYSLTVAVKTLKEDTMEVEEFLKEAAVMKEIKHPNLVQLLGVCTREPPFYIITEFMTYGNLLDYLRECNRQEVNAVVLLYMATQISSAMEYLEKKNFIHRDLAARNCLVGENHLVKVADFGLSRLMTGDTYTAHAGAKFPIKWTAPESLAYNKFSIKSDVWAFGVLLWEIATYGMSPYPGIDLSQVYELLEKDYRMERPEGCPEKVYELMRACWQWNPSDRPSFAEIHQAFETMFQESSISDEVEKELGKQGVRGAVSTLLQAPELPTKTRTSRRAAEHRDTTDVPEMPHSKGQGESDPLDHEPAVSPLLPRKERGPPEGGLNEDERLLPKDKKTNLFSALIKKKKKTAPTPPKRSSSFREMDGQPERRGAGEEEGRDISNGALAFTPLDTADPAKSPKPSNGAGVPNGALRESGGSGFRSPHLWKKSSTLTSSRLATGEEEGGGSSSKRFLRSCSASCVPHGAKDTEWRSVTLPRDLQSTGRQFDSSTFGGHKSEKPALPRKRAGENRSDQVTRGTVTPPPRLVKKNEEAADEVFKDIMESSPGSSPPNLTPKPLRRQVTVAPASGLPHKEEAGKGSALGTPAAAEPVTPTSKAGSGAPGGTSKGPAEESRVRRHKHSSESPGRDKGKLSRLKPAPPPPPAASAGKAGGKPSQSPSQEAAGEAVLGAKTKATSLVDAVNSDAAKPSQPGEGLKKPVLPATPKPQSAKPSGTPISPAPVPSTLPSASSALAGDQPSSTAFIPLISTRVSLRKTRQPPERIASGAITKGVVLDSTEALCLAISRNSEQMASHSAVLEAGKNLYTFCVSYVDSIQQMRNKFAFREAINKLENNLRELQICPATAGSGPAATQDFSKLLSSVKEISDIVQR

Row | IC50 [1] [µM] | IC50 [4] [µM] | IC50 [5] [µM] | melting point [°C] | IC50 [7] [µM] | IC50 [9] [µM] | IC50 ([10]; Homo sapiens, A549, MTT, 24 h exposure) [µM] | IC50 [12] [µM] | Structure (SMILES) | SI (selectivity index) [1] | IC50 [2] [µM] | IC50 [3] [µM] | apoptotic effects on CML cell line [6] [%] | late apoptotic/necrotic effects [6] [%] | IC50 [8] [µM] | activity against A549 cell line at 100 µM ([10]; 100 µM) | ERK phosphorylation (phosphorylated ERK1/2) [11] | amount of ERK1/2 [11]
1 | 8.94 ± 1.73 |  |  |  |  |  |  |  | CC1(C)CC[C@]2(C(=O)OCc3ccccc3)CC[C@]3(C)C(=CC[C@@H]4[C@@]5(C)CC[C@H](O)[C@@](C)(C=O)[C@@H]5CC[C@]43C)[C@@H]2C1 [Compound 1c, benzyl ester of gypsogenin] | >11.19 | > 100 | 8.71 ± 1.14 |  |  |  |  |  | 
2 | 4.78 ± 1.25 | 7.19 ± 0.65 | 51.6 ± 4.75 | 85 to 87 | 5.27 ± 0.42 | 35.3 ± 2.84 | > 100 | 9.14 ± 0.71 | CC1(C)CC[C@]2(C(=O)OCc3cc(C(F)(F)F)cc(C(F)(F)F)c3)CC[C@]3(C)C(=CC[C@@H]4[C@@]5(C)CC[C@H](O)[C@@](C)(C=O)[C@@H]5CC[C@]43C)[C@@H]2C1 [GP2, Gypsogenin 3,5-bis(trifluromethyl)benzyl ester] | 11.04 | 52.8 ± 3.82 |  | 24 | 4.5 | 36.8 ± 4.21 | inactive | inhibitory effect of ERK phosphorylation | moderately decreased
